Assay results from patent publication US11912671B1, “Ethyl 3-(5-(3-fluorophenyl)-4-phenyl-4H-1,2,4- triazol-3-ylthio)propanoate as an antimicrobial compound” (KING FAISAL UNIVERSITY, priority 2023, dated 2024).

Columns and labels:
Format in all cases: cell-based
Bacillus cereus = assay: agar plate disc-diffusion, antibacterial inhibition zone; conditions: nutrient agar, 37° C., 48 hours
Description: (§1) The agar plate disc-diffusion method was applied. […] The discs were then placed onto the surface of agar plates (nutrient agar for bacteria and Sabouraud's dextrose agar for fungi) seeded with the test organism. Each plate contained 15 mL of the agar medium, previously seeded with 0.2 mL of the broth culture of each organism pregrown for 18 hours. The plates were incubated at 37° C. for 48 hours, and 72 hours for fungi. The inhibition zones were measured in mm. Discs impregnated with DMSO were used as a control, and its inhibition zone was subtracted from the tested compound actual inhibition zone.

Staphylococcus aureus = assay: as above; conditions: nutrient agar, 37° C., 48 hours
Description: as §1

Escherichia coli = assay: as above; conditions: nutrient agar, 37° C., 48 hours
Description: as §1

Pseudomonas aeruginosa = assay: as above; conditions: nutrient agar, 37° C., 48 hours
Description: as §1

Aspergillus flavus = assay: agar plate disc-diffusion, antifungal inhibition zone; conditions: Sabouraud's dextrose agar, 72 hours
Description: as §1

[1] = test system: Chrysosporium keratinophilum; assay: as above; conditions: Sabouraud's dextrose agar, 72 hours
Description: as §1

[2] = A = concentration of comp. = 10,000 μL
[3] = B = concentration of comp. = 30,000 μL
[4] = C = concentration of comp. = 50,000 μL

## CCOC(=O)CCSc1nnc(-c2cccc(F)c2)n1-c1ccccc1 [III, ethyl 3-(5-(3-fluorophenyl)-4-phenyl-4H-1,2,4-triazol-3-ylthio)propanoate]
Bacillus cereus; [2]
  inhibition zone, Bacillus Cereus, A: 25 mm
Bacillus cereus; [3]
  inhibition zone, Bacillus Cereus, B: 28 mm
Bacillus cereus; [4]
  inhibition zone, Bacillus Cereus, C: 38 mm
Staphylococcus aureus; [2]
  inhibition zone, Staphylococcus aureus, A: 17 mm
Staphylococcus aureus; [3]
  inhibition zone, Staphylococcus aureus, B: 21 mm
Staphylococcus aureus; [4]
  inhibition zone, Staphylococcus aureus, C: 30 mm
Escherichia coli; [2]
  inhibition zone, Escherichia coli, A: 27 mm
Escherichia coli; [3]
  inhibition zone, Escherichia coli, B: 36 mm
Escherichia coli; [4]
  inhibition zone, Escherichia coli, C: 53 mm
Pseudomonas aeruginosa; [2]
  inhibition zone, Pseudomonas aeruginosa, A: 26 mm
Pseudomonas aeruginosa; [3]
  inhibition zone, Pseudomonas aeruginosa, B: 29 mm
Pseudomonas aeruginosa; [4]
  inhibition zone, Pseudomonas aeruginosa, C: 46 mm
Aspergillus flavus; [2]
  inhibition zone, Aspergillus flavus, A: 25 mm
Aspergillus flavus; [3]
  inhibition zone, Aspergillus flavus, B: 28 mm
Aspergillus flavus; [4]
  inhibition zone, Aspergillus flavus, C: 34 mm
[1]; [2]
  inhibition zone, Chrysosporium keratinophilum, A: 26 mm
[1]; [3]
  inhibition zone, Chrysosporium keratinophilum, B: 28 mm
[1]; [4]
  inhibition zone, Chrysosporium keratinophilum, C: 46 mm
